From PMC9040678, “Sequence-specific capture and concentration of viral RNA by type III CRISPR system enhances diagnostic” (Research Square, 2022)

Biological target: T1, TtCan1 (Thermus thermophilus, UniProt Q53W14)
T1 construct: gene TTHB155; codon-optimised synthetic gene, E. coli BL21(DE3); N-terminal His6-TwinStrep-SUMO tag removed; monomeric
T1 sequence (Q53W14 1-636): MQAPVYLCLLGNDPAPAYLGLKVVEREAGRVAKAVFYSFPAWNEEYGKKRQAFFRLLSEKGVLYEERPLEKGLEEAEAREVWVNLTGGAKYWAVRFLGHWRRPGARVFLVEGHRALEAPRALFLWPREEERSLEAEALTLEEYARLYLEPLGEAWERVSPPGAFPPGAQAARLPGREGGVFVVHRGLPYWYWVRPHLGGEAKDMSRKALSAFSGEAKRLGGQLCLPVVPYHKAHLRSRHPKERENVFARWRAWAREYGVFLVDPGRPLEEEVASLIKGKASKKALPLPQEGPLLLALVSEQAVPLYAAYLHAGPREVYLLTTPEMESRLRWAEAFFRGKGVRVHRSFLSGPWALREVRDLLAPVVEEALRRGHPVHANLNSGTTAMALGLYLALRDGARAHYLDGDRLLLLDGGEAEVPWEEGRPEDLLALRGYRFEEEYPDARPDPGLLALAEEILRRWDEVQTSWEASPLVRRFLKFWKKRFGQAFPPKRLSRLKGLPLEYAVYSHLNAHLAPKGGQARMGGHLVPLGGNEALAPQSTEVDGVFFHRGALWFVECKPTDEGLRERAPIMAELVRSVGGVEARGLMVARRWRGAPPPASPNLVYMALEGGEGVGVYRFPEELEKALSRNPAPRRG
Experiment: ssRNA cleavage, denaturing PAGE; fluorescent RNA reporters
Type: biochemical
Conditions: allosteric activator of ssRNase activity; 200 nM enzyme, 20 nM cA4, pH 7.8, 60 °C

For `Nc1ncnc2c1ncn2[C@@H]1O[C@@H]2COP(=O)(O)O[C@H]3[C@@H](O)[C@H](n4cnc5c(N)ncnc54)O[C@@H]3COP(=O)(O)O[C@H]3[C@@H](O)[C@H](n4cnc5c(N)ncnc54)O[C@@H]3COP(=O)(O)O[C@H]3[C@@H](O)[C@H](n4cnc5c(N)ncnc54)O[C@@H]3COP(=O)(O)O[C@H]2[C@H]1O` [cA4], the “ssRNA cleavage, denaturing PAGE; fluorescent RNA reporters” value was “TtCan1 is a cA4-dependent single-stranded RNase (ssRNA) but does not cleave ssDNA”.
